Source: publication PMC7553383 (ACS Chemical Neuroscience, 2020)

Tests used:
GIRK1/4 channels = target: T1, GIRK1/4 channels (Homo sapiens, UniProt P48544+P48549); assay: Ligand-induced GIRK channel block in oocytes expressing GIRK channels in the absence of D2R; assay type: cell-based; settings: for Ligand-induced GIRK channel block: 30 μM ligand, oocytes without D2R; for Current amplitude following application of ligand in the absence of D2R expression: oocytes injected with GIRK1 and GIRK4
T1 sequence (P48549 1-501): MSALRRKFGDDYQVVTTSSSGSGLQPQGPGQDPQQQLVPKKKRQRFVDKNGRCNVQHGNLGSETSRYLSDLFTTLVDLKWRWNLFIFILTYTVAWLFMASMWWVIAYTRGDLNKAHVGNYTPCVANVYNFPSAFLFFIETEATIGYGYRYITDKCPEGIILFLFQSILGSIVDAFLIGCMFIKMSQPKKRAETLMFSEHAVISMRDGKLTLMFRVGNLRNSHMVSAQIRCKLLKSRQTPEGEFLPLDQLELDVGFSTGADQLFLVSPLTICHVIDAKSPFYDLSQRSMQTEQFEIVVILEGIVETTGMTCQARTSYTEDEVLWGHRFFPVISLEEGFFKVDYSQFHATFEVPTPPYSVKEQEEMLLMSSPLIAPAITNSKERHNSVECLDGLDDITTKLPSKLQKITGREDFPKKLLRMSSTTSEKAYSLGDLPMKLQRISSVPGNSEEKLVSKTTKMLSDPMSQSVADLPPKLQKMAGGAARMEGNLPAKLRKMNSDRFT
T1 sequence (P48544 1-419): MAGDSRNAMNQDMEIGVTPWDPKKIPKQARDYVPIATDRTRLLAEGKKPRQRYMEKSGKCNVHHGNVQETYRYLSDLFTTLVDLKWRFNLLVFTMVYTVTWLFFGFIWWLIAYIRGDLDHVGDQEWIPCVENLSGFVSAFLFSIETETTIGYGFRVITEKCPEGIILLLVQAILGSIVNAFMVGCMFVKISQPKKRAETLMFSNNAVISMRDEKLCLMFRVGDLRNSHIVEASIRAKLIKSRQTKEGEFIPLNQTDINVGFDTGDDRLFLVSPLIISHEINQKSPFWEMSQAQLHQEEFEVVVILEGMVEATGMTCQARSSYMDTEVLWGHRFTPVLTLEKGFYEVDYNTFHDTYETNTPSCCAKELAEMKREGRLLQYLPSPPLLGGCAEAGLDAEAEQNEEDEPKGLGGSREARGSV
Source text: Figure S1. Effect of competing ligands on GIRK currents in the absence of D2R expression. Current
Figure S2. Intrinsic activities of aripiprazole analogues at WT D2R. Agonist responses of SWR-1-8, SV-III- […]

D2R WT [1] = target: T2, D2R WT (Homo sapiens, UniProt P14416); assay: cell-based
D2R = target: T3, D2R (Homo sapiens, UniProt P14416); assay: BRET beta-arrestin2 recruitment curve-shift assay in transfected HEK293 cells; assay type: cell-based; settings: 5 min preincubation with antagonist before dopamine
T3 construct: expressed in transfected cells

D2R WT [2] = target: T2, D2R WT; assay: G protein-coupled inward rectifier potassium (GIRK) channel activation assay in Xenopus oocytes coexpressing D2R, RGS4 and GIRK1/4

T2 sequence (P14416 whole entry): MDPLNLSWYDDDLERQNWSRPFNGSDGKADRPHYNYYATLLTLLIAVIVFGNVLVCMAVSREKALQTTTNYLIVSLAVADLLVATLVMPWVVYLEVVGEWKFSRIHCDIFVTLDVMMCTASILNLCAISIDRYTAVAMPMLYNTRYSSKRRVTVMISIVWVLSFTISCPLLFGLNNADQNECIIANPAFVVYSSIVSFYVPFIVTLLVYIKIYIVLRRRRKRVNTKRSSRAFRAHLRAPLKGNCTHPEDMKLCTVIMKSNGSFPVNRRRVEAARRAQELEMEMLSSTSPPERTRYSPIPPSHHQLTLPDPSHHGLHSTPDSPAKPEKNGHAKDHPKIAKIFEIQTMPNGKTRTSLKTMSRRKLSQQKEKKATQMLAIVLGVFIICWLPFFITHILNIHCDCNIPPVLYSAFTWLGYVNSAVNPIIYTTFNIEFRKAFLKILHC
T3 sequence (P14416 whole entry): as above

Structure (SMILES) | Ligand-induced GIRK channel block (GIRK1/4 channels) | Current amplitude following application of ligand in the absence of D2R expression (GIRK1/4 channels; 30 µM ligand) | Ki (D2R WT [1]) | mode of antagonism of DA-induced beta-arrestin2 recruitment (D2R) | Kd (D2R WT [2]) | koff (D2R WT [2]) | intrinsic activity in the GIRK activation assay (in words) (D2R WT [2]; WT D2R, normalized to 1 μM DA) | Current amplitude following application of ligand in the absence of D2R expression (GIRK1/4 channels; 1 µM ligand)
COc1ccccc1N1CCN(CCCOc2ccc3c(c2)NC(=O)CC3)CC1 [SWR-1-8] | < 10% | 0.99 ± 0.06 | 9.77 nM | competitive antagonism | 50.1 nM | 0.017 ± 0.002 s⁻¹ | antagonists/inverse agonists | –
COc1ccccc1N1CCN(CCCCCOc2ccc3c(c2)NC(=O)CC3)CC1 [SWR-1-14] | < 10% | 0.90 ± 0.01 | – | – | – | – | – | –
COc1ccccc1N1CCN(CCCCOc2ccc3c(c2)NC(=O)CC3)CC1 [SV-III-130] | < 10% | – | – | – | – | – | – | 1.00 ± 0.02
